The values that follow come from patent publication US3992535A, “4-Hydroxy-2H-naphtho[2,1-e]-1,2-thiazine-3-carboxamide-1,1-dioxides and salts thereof” (priority 1974, dated 1976).

Data set [1] is described as follows: Acute toxicity in the rat, oral. Type of data set: in vivo. As to conditions: in vivo, po, per os, male and female FW 49-rats, within 14 days. The method, then:
The test compound was administered in the form of a trituration in tylose.
The calculation of the LD50 values was effected, to the extent possible, according to the method of Litchfield and Wilcoxon, based on the percentage of animals which died within 14 days after administration of the different doses.

Data set [2] concerns carrageenin-induced edema of the hind paw of the rat. As to the kind of experiment: Carrageenin edema of the back paw of the rat. The format is in vivo. The settings on record: per os, 60 minutes before edema, swelling at 3 hours. The method, then: (§1) Compound A and known compound B were tested to determine their actue antiexsudative effect on the kaolin-induced edema and the carrageenin-induced edema of the hind paw of the rat and their acute toxicity after oral administration in rats.
b. Carrageenin edema of the back paw of the rat:
(§2) The provocation of the carrageenin edema was effected according to the method of Winter et al [Proc. Soc. exp. Biol. Med. 111, 544 (1962)] by subplantar injection of 0.05 ml of a 1% solution of carrageenin in an aqueous 0.85% solution of sodium chloride. The test compound was administered 60 minutes before the provocation of the edema.
(§3) For the calculation of the reductive effect on the edema, the size of the swelling was measured 3 hours after the provocation of the edema. All the other details were the same as described above in the case of the kaolin edema.
(In general: Carrageenan injected into the paw causes an acute inflammation.)

The test system of data set [3] is kaolin- and carrageenin-induced edemas. Put plainly: Kaolin and carrageenin edema combined: average ED35 and therapeutic ratio LD50/ED35. Type of data set: in vivo. As to the method: (§4) The kaolin edema was induced according to the method of Hillebrecht [Arzneimittel-Forsch. 4, 607 (1954] by subplantar injection of 0.05 ml of a 10% suspension of kaolin in an aqueous 0.85% sodium chloride solution. Measurement of the thickness of the paws was effected using the technique of Doepfner and Cerletti [Int. Arch. Allergy Immunol. 12, 89 (1958)]. The test compound was administered perorally by means of an esophageal tube to male FW 49-rats having an average body weight of 120 to 150 gm 30 minutes before inducing the edema. 5 hours after the provocation of the edema, the average size of the swelling in the rats treated with the test compound was compared with the average size of the swelling in the control animals treated by a dummy procedure. By graphical extrapolation, the dose leading to a 35% reduction of the swelling (ED35) was calculated from the percentage reduction in the size of the swelling caused by the administration of different doses.
as §2, §3
The therapeutic index (a measure of the therapeutic usefulness) was calculated as the quotient of the oral LD50 value and the ED35 value derived from the tests to determine the antiexsudative activity against kaolin- and carrageenininduced edemas.

Data set [4] has as its system kaolin-induced edema of the hind paw of the rat. Put plainly: Kaolin edema of the hind paw of the rat. Type of data set: in vivo. The settings on record: per os, 30 minutes before edema, 35% reduction of swelling at 5 hours. As to the method: as §1
a. Kaolin edema of the hind paw of the rat:
as §4

The subject of data set [5] is adjuvant arthritis in the rat. As to the kind of experiment: Adjuvant arthritis in the rat. The format is in vivo. As to conditions: for ED50: po, 504 h, per os, once a day for 20 days, paw volume on 21st day, read-out: Adjuvant arthritis in the rat ED50 per os (average value of primary and secondary reaction). The method, then:
d. Adjuvant arthritis in the rat: The adjuvant arthritis tests in rats were carried out according to the method of Rosenthale and Nagra [Proc. Soc. exp. Biol. 125, 149 (1967)]. […] The test compound was administered once a day, starting with the day of the M. butyricum-injection, for a period of 20 days by means of an esophageal tube. […] An ED50 was determined graphically from the reduction of the swelling caused by the administration of different doses.

Data set [6] deals with platelet stickiness in human citrate blood. Put plainly: Morris test (platelet stickiness, retention on glass beads). Type of data set: cell-based. As to the method:
The principle of the Morris test is described in "Stoffwechsel- and Membranpermeabilitat von Erythrozyten und Thrombozyten, I. Int.
1 ml of human citrate blood was pipetted into each of a number of small test tubes, the test compound was added in the desired concentrations, and the tubes were incubated at 37° C for 10 minutes. 2 gm each of glass beads (about 100 mesh) were added to half of the tubes. The tubes, stoppered by means of a plastic plug, were attached to a vertical wheel and rotated for 45 seconds end-over-end. The same tubes were then left to stand at ambient temperature for a further hour, after which time a sedimentation of erythrocytes and glass beads had taken place. 0.01 ml of the supernatant plasma was removed and diluted with 1:800 celloscope solution. The platelet count was read in a celloscope. The percentage of the thrombocytes retained in the sediment (adhering to the glass beads or aggregating) was calculated from the difference of the thrombocyte counts with and without glass contact.
The results were expressed in terms of the percentage reduction in the stickiness compared with the control (without addition of test compound).

Data set [7] relates to thrombocyte aggregation in the platelet-rich plasma of healthy human donors. As to the kind of experiment: Born test; collagen aggregation. Type of data set: cell-based. As to conditions: for 50% diminution of aggregation: times lower concentration than compound N: vs compound N (acetylsalicylic acid); for inhibition at 0.1 µM: 10^-^7 mol/liter. The method, then:
b. […] The rate of decline of the optical density of platelet suspensions was measured and recorded photometrically after the addition of commercial collagen. From the angle of inclination of the density curve, the rate of aggregation was estimated. The optical density was taken at the point on the curve where most light was transmitted. The amount of collagen was chosen such that an irreversible control curve was obtained. The results were expressed in terms of the optical density and represent the percentage change in light transmission (= % diminution of the aggregation) caused by the test compound compared with the untreated control.

The mark [8] stands for this setting: Homo sapiens, read-out: Born test (% diminution of the aggregation).
Where [9] appears, read: Homo sapiens, 10^-^4 mol/liter, read-out: Born test (% diminution of the aggregation).
[10] abbreviates: Homo sapiens, 10^-^5 mol/liter, read-out: Born test (% diminution of the aggregation).
Where [11] appears, read: Homo sapiens, 10^-^6 mol/liter, read-out: Born test (% diminution of the aggregation).

Where a name gives a salt, the structure may show the parent alone. Read-outs that look alike come from different tables or passages of the source.

The LD50 is the dose at which mortality reaches 50%. A lower LD50 goes with greater toxicity. `COc1ccc2c(c1)c(CC(=O)O)c(C)n2C(=O)c1ccc(Cl)cc1` [B, indomethacin, reference compound] gave an LD50 at 336 h in data set [1] of 25.7 mg/kg. The ED35 in data set [2] was 2.9 mg/kg; in data set [3] (Rattus norvegicus, read-out: Average value ED35), 2.8 mg/kg; in data set [4], 2.7 mg/kg. Moreover, the “Therapeutic ratio: ratio of toxic and anti-exsudative activity LD50 / ED35” value in data set [3] (oral LD50 / average ED35, rat) is recorded as 9.2.

The term ED50 denotes the dose at which the effect has come halfway, by size or by number of responders. Regarding `CN1C(C(=O)Nc2ccccn2)=C(O)c2ccc3ccccc3c2S1(=O)=O` [C, 4-Hydroxy-2-methyl-N-(2-pyridyl)-2H-naphtho[2,1-e]-1,2-thiazine-3-carboxamide-1,1-dioxide], in data set [5], the “activity against adjuvant arthritis (in words)” value is “surprisingly strong activity” and the ED50 was around 4 mg/kg. For the same molecule, the “activity against adjuvant arthritis compared with phenylbutazone (D) (in words)” value in data set [5] (vs phenylbutazone (D)) is “far superior”.

Regarding `CCCCC1C(=O)N(c2ccccc2)N(c2ccccc2)C1=O` [D, phenylbutazone, reference compound], the ED50 in data set [5] was around 40 mg/kg.

`CN1C(C(=O)Nc2nccs2)=C(O)c2ccccc2S1(=O)=O` [E, 4-hydroxy-2-methyl-N-(2-thiazolyl)-2H-1,2-benzothiazine-3-carboxamide-1,1-dioxide, reference compound] showed an LD50 at 336 h in data set [1] of 136 mg/kg. For the same molecule, in data set [6] (Platelet, 10 min, 10^-^4 mol/liter, human citrate blood, read-out: Morris test (percentage reduction in the stickiness)), the inhibition at 100 µM was 3%. For the same molecule, in data set [6] (vs compound A), the “inhibition of the stickiness in the Morris test in comparison with compound A (in words)” value was “practically ineffective”. In data set [7] (setting [8]), the inhibition at 1 µM was 33%, the inhibition at 10 µM stood at 91% and the inhibition at 100 µM worked out at 92%.

For `CN1C(C(=O)Nc2cccc(Cl)c2)=C(O)c2ccc3ccccc3c2S1(=O)=O` [F, N-(3-Chloro-phenyl)-4-hydroxy-2-methyl-2H-naphtho[2,1-e]-1,2-thiazine-3-carboxamide-1,1-dioxide], the inhibition at 100 µM in data set [7] (setting [9]) came to 96%. In addition, the inhibition at 10 µM in data set [7] (setting [10]) was found to be 81%. In data set [7] (setting [11]), the inhibition at 1 µM worked out at 35%. The “50% diminution of aggregation: times lower concentration than compound N” value in data set [7] is recorded as “at least 20 times lower”.

In the case of `Cc1cccc(NC(=O)C2=C(O)c3ccc4ccccc4c3S(=O)(=O)N2C)c1` [G, 4-Hydroxy-2-methyl-N-(3-tolyl)-2H-naphtho[2,1-e]-1,2-thiazine-3-carboxamide-1,1-dioxide], the inhibition at 100 µM in data set [7] (setting [9]) was found to be 97%. In data set [7] (setting [10]), the inhibition at 10 µM came to 78%. Also, the inhibition at 1 µM in data set [7] (setting [11]) turned out to be 65%. In addition, in data set [7], the “50% diminution of aggregation: times lower concentration than compound N” value is “at least 20 times lower”.

For `Cc1ccnc(NC(=O)C2=C(O)c3ccc4ccccc4c3S(=O)(=O)N2C)c1` [H, Sodium salt of 4-hydroxy-2-methyl-N-(4-methyl-2-pyridyl)-2H-naphtho[2,1-e]-1,2-thiazine-3-carboxamide-1,1-dioxide], the inhibition at 100 µM in data set [7] (setting [9]) stood at 95%. The inhibition at 10 µM in data set [7] (setting [10]) amounted to 91%. Also, in data set [7] (setting [11]), the inhibition at 1 µM is 82%. Also, the “50% diminution of aggregation: times lower concentration than compound N” value in data set [7] is “at least 100 times lower”.

Regarding `CN1C(C(=O)Nc2cncc(Cl)n2)=C(O)c2ccc3ccccc3c2S1(=O)=O` [I, N-(6-Chloro-2-pyrazinyl)-4-hydroxy-2-methyl-2H-naphtho[2,1-e]-1,2-thiazine-3-carboxamide-1,1-dioxide], the inhibition at 10 µM in data set [7] (setting [10]) was 91%. Also, in data set [7] (setting [11]), the inhibition at 1 µM was 91%. For the same molecule, the inhibition at 0.1 µM in data set [7] (setting [8]) came out at 22%. Besides, the “50% diminution of aggregation: times lower concentration than compound N” value in data set [7] is reported as “at least 100 times lower”.

As to `Cc1csc(NC(=O)C2=C(O)c3ccc4ccccc4c3S(=O)(=O)N2C)n1` [J, 4-Hydroxy-2-methyl-N-(4-methyl-2-thiazolyl)-2H-naphtho[2,1-e]-1,2-thiazine-3-carboxamide-1,1-dioxide], the inhibition at 100 µM in data set [7] (setting [9]) was 92%. In data set [7] (setting [10]), the inhibition at 10 µM was determined as 89%. In addition, the inhibition at 1 µM in data set [7] (setting [11]) stood at 88%. Also, the inhibition at 0.1 µM in data set [7] (setting [8]) came to 4%. For the same molecule, the “50% diminution of aggregation: times lower concentration than compound N” value in data set [7] is “at least 100 times lower”.

Consider `Cc1cnc(NC(=O)C2=C(O)c3ccc4ccccc4c3S(=O)(=O)N2C)s1` [K, 4-Hydroxy-2-methyl-N-(5-methyl-2-thiazolyl)-2H-naphtho[2,1-e]-1,2-thiazine-3-carboxamide-1,1-dioxide], for which the inhibition at 100 µM in data set [7] (setting [9]) was found to be 89%. Also, the inhibition at 10 µM in data set [7] (setting [10]) is 97%. The inhibition at 1 µM in data set [7] (setting [11]) came to 66%. Further, in data set [7], the “50% diminution of aggregation: times lower concentration than compound N” value is “at least 20 times lower”.

For the molecule `Cc1nc(NC(=O)C2=C(O)c3ccc4ccccc4c3S(=O)(=O)N2C)sc1C` [L, N-(4,5-Dimethyl-2-thiazolyl)-4-hydroxy-2-methyl-2H-naphtho[2,1-e]-1,2-thiazine-3-carboxamide-1,1-dioxide], in data set [7] (setting [9]), the inhibition at 100 µM came to 91%. The inhibition at 10 µM in data set [7] (setting [10]) was found to be 95%. In addition, in data set [7] (setting [11]), the inhibition at 1 µM was 88%. Moreover, the inhibition at 0.1 µM in data set [7] (setting [8]) was 15%. Besides, in data set [7], the “50% diminution of aggregation: times lower concentration than compound N” value is reported as “at least 100 times lower”.

In the case of `CCc1nc(NC(=O)C2=C(O)c3ccc4ccccc4c3S(=O)(=O)N2C)sc1C` [M, N-(4-Ethyl-5-methyl-2-thiazolyl)-4-hydroxy-2-methyl-2H-naphtho[2,1-e]-1,2-thiazine-3-carboxamide-1,1-dioxide], in data set [7] (setting [9]), the inhibition at 100 µM turned out to be 94%. In addition, in data set [7] (setting [10]), the inhibition at 10 µM worked out at 91%. Besides, the inhibition at 1 µM in data set [7] (setting [11]) is 79%. In data set [7] (setting [8]), the inhibition at 0.1 µM was found to be 24%. For the same molecule, the “50% diminution of aggregation: times lower concentration than compound N” value in data set [7] is “at least 100 times lower”.

In the case of `CC(=O)Oc1ccccc1C(=O)O` [N, acetylsalicylic acid, reference compound], in data set [7] (setting [8]), the inhibition at 10 µM is 13% and the inhibition at 30 µM was determined as 45%. Also, the IC50 in data set [7] (Homo sapiens, read-out: concentration causing a 50% diminution of aggregation) is around 40 µM.
